# Tested on: Wnt activity in DLD1-Wnt-Luc cells
# Test: Wnt-Luciferase Reporter Assay
# Conditions: read-out: Wnt IC50
row,SMILES,IC50 [µM]
1,CN1CCN(c2ccc(-c3cc4c(Cl)cccc4c(=O)[nH]3)cn2)CC1 [IQ-002],0.179
2,"CN(C)Cc1ccc(-c2cc3ccccc3c(=O)[nH]2)cc1 [REF-4, reference compound]",> 10

# Same assay, conditions: read-out: Wnt IC50, DLD1-Wnt-Luc cells
row,IC50 [µM],SMILES
1,< 5,CN(C)Cc1ccc(-c2cc3c(F)cccc3c(=O)[nH]2)cc1 [IQ-032]
2,< 5,"CCc1cccc2c(=O)[nH]c(-c3ccc(CN4CCN(C(=O)OC(C)(C)C)CC4)cc3)cc12 [IQ-151, 4-[4-(5-Ethyl-1-oxo-1,2-dihydro-isoquinolin-3-yl)-benzyl]-piperazine-1-carboxylic acid tert-butyl ester]"

# Molecular target: TNKS1 (Homo sapiens, UniProt O95271)
# Test: TNKS1/PARP Biochemical Assay (TNKS1)
# Conditions: not given
row,IC50 [nM],SMILES
1,< 500,CN(CC1CCN(C(=O)OC(C)(C)C)CC1)S(=O)(=O)c1ccc(-c2cc3c(Cl)cccc3c(=O)[nH]2)cc1 [IQ-114]
2,< 20,Cc1cccc2c(=O)[nH]c(-c3ccc(S(=O)(=O)N(C)CC4CCNCC4)cc3)cc12 [IQ-115]
3,< 50,CN(CC1CCNCC1)S(=O)(=O)c1ccc(-c2cc3c(Cl)cccc3c(=O)[nH]2)cc1 [IQ-116]
4,< 20,Cc1cccc2c(=O)[nH]c(-c3ccc(S(=O)(=O)N(C)CCN(C)C)cc3)cc12 [IQ-117]
5,< 20,Cc1cccc2c(=O)[nH]c(-c3ccc(S(=O)(=O)N(C)CC4CCOCC4)cc3)cc12 [IQ-118]
6,< 500,Cc1cccc2c(=O)[nH]c(-c3ccc(S(=O)(=O)N(C4CC4)C4CCN(C)CC4)cc3)cc12 [IQ-119]
7,< 20,Cc1cccc2c(=O)[nH]c(-c3ccc(S(=O)(=O)N(C)CCO)cc3)cc12 [IQ-120]
8,< 500,CN1CCN(S(=O)(=O)c2ccc(-c3cc4c(Cl)cccc4c(=O)[nH]3)cc2)CC1 [IQ-122]
9,< 20,Cc1cccc2c(=O)[nH]c(-c3ccc(S(=O)(=O)N4CCNCC4)cc3)cc12 [IQ-123]
10,< 20,Cc1cccc2c(=O)[nH]c(-c3ccc(S(=O)(=O)N4CCC(N(C)C)CC4)cc3)cc12 [IQ-125]
11,< 500,CN(C)C1CCN(S(=O)(=O)c2ccc(-c3cc4c(Cl)cccc4c(=O)[nH]3)cc2)CC1 [IQ-126]
12,< 50,Cc1cccc2c(=O)[nH]c(-c3ccc(OCCN4CCCC4)cc3)cc12 [IQ-134]
13,< 500,CC(C)(C)OC(=O)N1CCN(c2ccc(-c3cc4c(Cl)cccc4c(=O)[nH]3)cn2)CC1 [IQ-136]
14,< 50,CN1CCN(Cc2ccc(-c3cc4c(F)cc(F)cc4c(=O)[nH]3)cc2)CC1 [IQ-138]
15,< 500,Cc1cccc2c(=O)[nH]c(-c3ccc(S(=O)(=O)N4CCN(C(=O)OC(C)(C)C)CC4)cc3)cc12 [IQ-140]
16,< 500,Cc1cccc2c(=O)[nH]c(-c3ccc(CN4CCN(C(=O)OC(C)(C)C)CC4C)cc3)cc12 (stereo not drawn) [IQ-142]
17,< 500,Cc1cccc2c(=O)[nH]c(-c3ccc(CN4CCN(C(=O)OC(C)(C)C)C(C)C4)cc3)cc12 (stereo not drawn) [IQ-143]
18,< 500,CN(CC1CCN(C(=O)OC(C)(C)C)CC1)C(=O)c1ccc(-c2cc3c(Cl)cccc3c(=O)[nH]2)cc1 [IQ-145]
19,< 500,Cc1ccc(S(=O)(=O)N2CCN(C(C)(C)c3ccc(-c4cc5c(C)cccc5c(=O)[nH]4)cc3)CC2)cc1 [IQ-148]
20,< 500,CC(C)(C)OC(=O)N1CCN(Cc2ccc(-c3cc4c(F)cc(F)cc4c(=O)[nH]3)cc2)CC1 [IQ-154]
21,< 50,O=c1[nH]c(-c2ccc(CN3CCNCC3)cc2)cc2c(F)cc(F)cc12 [IQ-158]
22,< 500,Cc1cccc2c(=O)[nH]c(-c3ccc(CN4CCN(CC5CC5)CC4)nc3)cc12 [IQ-161]
23,< 20,Cc1cccc2c(=O)[nH]c(-c3ccc(CN4CCN(C(=O)C5CC5)CC4)nc3)cc12 [IQ-162]
24,< 500,Cc1cccc2c(=O)[nH]c(-c3ccc(CN4CCNC(=O)C4)cc3F)cc12 [IQ-166]
25,< 20,Cc1cccc2c(=O)[nH]c(-c3ccc(CN4CC(O)C4)cc3)cc12 [IQ-167]

row,IC50 [nM],SMILES
1,< 20,Cc1cccc2c(=O)[nH]c(-c3ccc(Cn4ccnc4C)cc3)cc12 [IQ-168]
2,< 50,Cc1cccc2c(=O)[nH]c(-c3ccc(CN4CC(O)C4)c(F)c3)cc12 [IQ-169]
3,< 20,"Cc1cc(F)cc2c(=O)[nH]c(-c3ccc(CN4CC(O)C4)cc3)cc12 [IQ-170, 7-Fluoro-3-[4-(3-hydroxy-azetidin-1-ylmethyl)-phenyl]-5-methyl-2H-isoquinolin-1-one]"
4,< 50,Cc1cccc2c(=O)[nH]c(-c3ccc(Cn4cncn4)cc3)cc12 [IQ-171]
5,< 20,Cc1cccc2c(=O)[nH]c(-c3ccc(CN4CC(C)(O)C4)cc3)cc12 [IQ-172]
6,< 50,Cc1cccc2c(=O)[nH]c(-c3ccc(CN4CCC(N(C)C)C4)cc3)cc12 (stereo not drawn) [IQ-173]
7,< 20,Cc1cccc2c(=O)[nH]c(-c3ccc(CC(=O)N(C)C4CCN(C)CC4)cc3)cc12 [IQ-176]
8,< 20,CNC1CN(Cc2ccc(-c3cc4c(C)cccc4c(=O)[nH]3)cc2)C1 [IQ-177]
9,< 20,CNC1CN(Cc2ccc(-c3cc4c(C)cc(F)cc4c(=O)[nH]3)cc2)C1 [IQ-178]
10,< 500,Cc1cccc2c(=O)[nH]c(-c3ccc(Cn4c(C)nc5ccccc54)cc3)cc12 [IQ-179]
11,< 20,Cc1cccc2c(=O)[nH]c(-c3ccc(Cn4ccnc4)cc3)cc12 [IQ-180]
12,< 500,Cc1cccc2c(=O)[nH]c(-c3ccc(Cn4cnc5ccccc54)cc3)cc12 [IQ-181]
13,< 20,Cc1cccc2c(=O)[nH]c(-c3ccc(Cn4cccn4)cc3)cc12 [IQ-182]
14,< 500,Cc1cccc2c(=O)[nH]c(-c3ccc(Cn4cccc4)cc3)cc12 [IQ-184]
15,< 50,Cc1cc(F)cc2c(=O)[nH]c(-c3ccc(C(C)(C)N4CC(O)C4)cc3)cc12 [IQ-185]
16,< 500,Cc1cc(F)cc2c(=O)[nH]c(-c3ccc(C(=O)N(C)C4CCNC4)cc3)cc12 (stereo not drawn) [IQ-186]
17,< 50,COCCN(CCOC)C(=O)c1ccc(-c2cc3c(C)cccc3c(=O)[nH]2)cc1 [IQ-187]
18,< 20,Cc1cccc2c(=O)[nH]c(-c3ccc(C(=O)N4CC(O)C4)cc3)cc12 [IQ-188]
19,< 20,Cc1ccc(F)c2c(=O)[nH]c(-c3ccc(C(=O)N4CCN(C)CC4)cc3)cc12 [IQ-189]
20,< 20,Cc1cc(F)cc2c(=O)[nH]c(-c3ccc(C(=O)N4CCN(CCO)CC4)cc3)cc12 [IQ-192]
21,< 20,Cc1ccc(F)c2c(=O)[nH]c(-c3ccc(C(=O)N4CCN(CCO)CC4)cc3)cc12 [IQ-193]
22,< 20,Cc1cccc2c(=O)[nH]c(-c3cc(F)c(C(=O)N4CC(O)C4)c(F)c3)cc12 [IQ-194]
23,< 20,Cc1cc(F)cc2c(=O)[nH]c(-c3ccc(C(=O)N(C)C4CCN(C)CC4)cc3)cc12 [IQ-195]
24,< 20,Cc1cccc2c(=O)[nH]c(-c3ccc(C(=O)N(C)C4CCN(C)C4)cc3)cc12 (stereo not drawn) [IQ-196]
25,< 20,Cc1cc(F)cc2c(=O)[nH]c(-c3ccc(C(=O)N(C)C4CCN(C)C4)cc3)cc12 (stereo not drawn) [IQ-197]

row,IC50 [nM],SMILES
1,< 20,Cc1cccc2c(=O)[nH]c(-c3ccc(C(=O)N(C)Cc4nccn4C)cc3)cc12 [IQ-198]
2,< 20,Cc1cccc2c(=O)[nH]c(-c3ccc(C(=O)N(C)C4CN(C)C4)cc3)cc12 [IQ-199]
3,< 20,Cc1cccc2c(=O)[nH]c(-c3ccc(C(=O)N(C)C4CCNC4)cc3)cc12 (stereo not drawn) [IQ-200]
4,< 50,Cc1cc(F)cc2c(=O)[nH]c(-c3ccc(C(=O)N(C)C4CN(C)C4)cc3)cc12 [IQ-201]
5,< 500,Cc1cccc2c(=O)[nH]c(-c3ccc(C(=O)N4CC(N(C)C)C4)cc3)cc12 [IQ-202]
6,< 50,Cc1cc(F)cc2c(=O)[nH]c(-c3ccc(C(=O)N4CC(N(C)C)C4)cc3)cc12 [IQ-203]
7,< 20,Cc1cccc2c(=O)[nH]c(-c3ccc(C(=O)N(C)CC4CCN(C)C4)cc3)cc12 (stereo not drawn) [IQ-204]
8,< 50,Cc1cccc2c(=O)[nH]c(-c3ccc(C(=O)N(C)C4CCN(C(C)C)CC4)cc3)cc12 [IQ-206]
9,< 20,Cc1cc(F)cc2c(=O)[nH]c(-c3ccc(C(=O)N(C)CC4CCN(C)CC4)cc3)cc12 [IQ-208]
10,< 20,Cc1cccc2c(=O)[nH]c(-c3ccc(C(=O)N(C)CC4(C)CCN(C)C4)cc3)cc12 (stereo not drawn) [IQ-209]
11,< 20,Cc1cc(F)cc2c(=O)[nH]c(-c3ccc(C(=O)N(C)CC4(C)CCN(C)C4)cc3)cc12 (stereo not drawn) [IQ-210]
12,< 20,Cc1cccc2c(=O)[nH]c(-c3ccc(C(=O)N(C)C4CCCN(C)C4)cc3)cc12 (stereo not drawn) [IQ-211]
13,< 50,Cc1cc(F)cc2c(=O)[nH]c(-c3ccc(C(=O)N(C)C4CCCN(C)C4)cc3)cc12 (stereo not drawn) [IQ-212]
14,< 20,Cc1cc(F)cc2c(=O)[nH]c(-c3ccc(C(=O)N(C)C4CCNCC4)cc3)cc12 [IQ-213]
15,< 20,Cc1cccc2c(=O)[nH]c(-c3ccc(CC(=O)N4CC(O)C4)cc3)cc12 [IQ-214]
16,< 20,Cc1cc(F)cc2c(=O)[nH]c(-c3ccc(CC(=O)N4CC(O)C4)cc3)cc12 [IQ-215]
17,< 50,Cc1cc(F)cc2c(=O)[nH]c(-c3ccc(C(C)(C)C(=O)N4CC(O)C4)cc3)cc12 [IQ-218]
18,< 20,Cc1cccc2c(=O)[nH]c(-c3ccc(NC(CO)CO)nc3)cc12 [IQ-219]
19,< 50,CN1CCN(C(=O)c2ccc(-c3cc4c(F)ccc(F)c4c(=O)[nH]3)cc2)CC1 [IQ-226]
20,< 20,CN1CCN(C(=O)c2ccc(-c3cc4c(F)cc(F)cc4c(=O)[nH]3)cc2)CC1 [IQ-227]
21,< 50,"O=C(c1ccc(-c2cc3c(F)cc(F)cc3c(=O)[nH]2)cc1)N1CCN(CCO)CC1 [IQ-228, 5,7-Difluoro-3-{4-[4-(2-hydroxy-ethyl)-piperazine-1-carbonyl]-phenyl}-2H-isoquinolin-1-one]"
22,< 500,O=C(c1ncc(-c2cc3c(F)ccc(F)c3c(=O)[nH]2)cn1)N1CCN(CC2CC2)CC1 [IQ-229]
23,< 50,CN1CCN(Cc2ccc(-c3cc4c(C#CCO)cccc4c(=O)[nH]3)cc2)CC1 [IQ-231]
24,< 500,COCC#Cc1cccc2c(=O)[nH]c(-c3ccc(OCCN(C)C)cc3)cc12 [IQ-234]
25,< 500,"CN(C)CCOc1ccc(-c2cc3c(C#CCCO)cccc3c(=O)[nH]2)cc1 [IQ-236, 3-[4-(2-Dimethylaminoethoxy)phenyl]-5-(4-hydroxybut-1-ynyl)-2H-isoquinolin-1-one]"

row,SMILES,IC50 [nM]
1,CN1CCN(c2ccc(-c3cc4c(Cl)cccc4c(=O)[nH]3)cn2)CC1 [IQ-002],39
2,Cc1cccc2c(=O)[nH]c(-c3ccc(CC(=O)N4CCN(C)CC4)cc3)cc12 [IQ-175],< 20

# Reference: US9193689B2, “3-aryl-5-substituted-isoquinolin-1-one compounds and their therapeutic use” (INSTITUTE OF CANCER RESEARCH: ROYAL CANCER HOSPITAL (THE), priority 2012, dated 2015)
